Test results as given in ChEMBL document CHEMBL1201862, “PubChem BioAssay data set” (2004).
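Five compound concentrations were applied to cells in 96-well plates for 48 hours; endpoints were derived by simple linear interpolation of the resulting dose-response curve. GI50: concentration for 50% inhibition of growth.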 The source made the active and inactive calls. Rule as the data show it: active = GI50 up to about 1.1 µM and inactive = higher.

Columns and labels:
Experiment in all cases: DTP human tumour cell line panel, 48 h
CCRF-CEM = tested on: CCRF-CEM
HCC 2998 = tested on: HCC 2998
HCT-15 = tested on: HCT-15
HT-29 = tested on: HT-29
K562 = tested on: K562
LOX IMVI = tested on: LOX IMVI
MDA-N = tested on: MDA-N
MOLT-4 = tested on: MOLT-4
NCI-H460 = tested on: NCI-H460
OVCAR-4 = tested on: OVCAR-4
SF-268 = tested on: SF-268
SF-295 = tested on: SF-295
SK-MEL-28 = tested on: SK-MEL-28
T47D = tested on: T47D
TK-10 = tested on: TK-10
U-251 = tested on: U-251
UACC-257 = tested on: UACC-257
UACC-62 = tested on: UACC-62

Row | SMILES | GI50 (CCRF-CEM) | GI50 (HCC 2998) | GI50 (HCT-15) [µM] | GI50 (HT-29) | GI50 (K562) | GI50 (LOX IMVI) | GI50 (MDA-N) | GI50 (MOLT-4) | GI50 (NCI-H460) | GI50 (OVCAR-4) | GI50 (SF-268) | GI50 (SF-295) | GI50 (SK-MEL-28) | GI50 (T47D) | GI50 (TK-10) | GI50 (U-251) | GI50 (UACC-257) | GI50 (UACC-62)
1 | COc1ccc2c3c1OC1C34CCN(C)C(C2)C4=CC(I)C1(OC)OC (stereo not drawn) | 1.32 µM (inactive) | 10.2 µM (inactive) | 11.8 | 7.66 µM (inactive) | 2.77 µM (inactive) | 7.33 µM (inactive) | 6.14 µM (inactive) | 3.15 µM (inactive) | 13.5 µM (inactive) | 13.2 µM (inactive) | 16.7 µM (inactive) | 41.5 µM (inactive) | 12.1 µM (inactive) | 16.3 µM (inactive) | 14.7 µM (inactive) | 16.2 µM (inactive) | 13.2 µM (inactive) | 14.6 µM (inactive)
2 | COc1cc(O)c2c(=O)c(OC)c(-c3ccc(OC)c(O)c3)oc2c1 [AYANIN] | 23.6 µM (inactive) | 28.2 µM (inactive) | 14.3 | 79.1 µM (inactive) | 60.5 µM (inactive) | 20.7 µM (inactive) | 73.1 µM (inactive) | 42.7 µM (inactive) | 14 µM (inactive) | 22.1 µM (inactive) | 33.2 µM (inactive) | 7.78 µM (inactive) | > 100 µM (inactive) | 3.83 µM (inactive) | 17.6 µM (inactive) | > 100 µM (inactive) | 85.7 µM (inactive) | 23.5 µM (inactive)
3 | CC1(C)OC[C@@H](O)[C@H](C#N)CO1 | > 100 µM (inactive) | > 100 µM (inactive) | > 100 | > 100 µM (inactive) | > 100 µM (inactive) | > 100 µM (inactive) | > 100 µM (inactive) | > 100 µM (inactive) | > 100 µM (inactive) | > 100 µM (inactive) | > 100 µM (inactive) | > 100 µM (inactive) | > 100 µM (inactive) | > 100 µM (inactive) | > 100 µM (inactive) | > 100 µM (inactive) | > 100 µM (inactive) | > 100 µM (inactive)
4 | COc1ccc(-c2cc(-c3ccccc3)nc(N)n2)c(O)c1 | 4.59 µM (inactive) | > 100 µM (inactive) | 6.03 | > 26.9 µM (inactive) | 2.19 µM (inactive) | 6.78 µM (inactive) | 4.55 µM (inactive) | 4.16 µM (inactive) | 5.04 µM (inactive) | > 74.6 µM (inactive) | 17.8 µM (inactive) | > 86.1 µM (inactive) | > 83.4 µM (inactive) | 5.86 µM (inactive) | > 100 µM (inactive) | 12.6 µM (inactive) | > 100 µM (inactive) | > 28.9 µM (inactive)
5 | Fc1cccc2nc(-c3ccccc3)cc(OCc3ccccc3)c12 | > 100 µM (inactive) | > 100 µM (inactive) | > 100 | > 100 µM (inactive) | > 100 µM (inactive) | > 100 µM (inactive) | > 100 µM (inactive) | > 100 µM (inactive) | > 100 µM (inactive) | > 100 µM (inactive) | > 100 µM (inactive) | > 100 µM (inactive) | > 100 µM (inactive) | 89.3 µM (inactive) | > 100 µM (inactive) | > 100 µM (inactive) | > 100 µM (inactive) | > 100 µM (inactive)
6 | C/C(=N\NC(N)=S)c1ccc2c(c1)Sc1ccccc1O2 | 3.67 µM (inactive) | 1.66 µM (inactive) | 0.593 | 1.61 µM (inactive) | 2.36 µM (inactive) | 2.62 µM (inactive) | 0.373 µM (active) | 2.54 µM (inactive) | 2.83 µM (inactive) | 2.47 µM (inactive) | 2.36 µM (inactive) | 4.63 µM (inactive) | 3.81 µM (inactive) | 6.61 µM (inactive) | 3.73 µM (inactive) | 2.37 µM (inactive) | 6.14 µM (inactive) | 2.42 µM (inactive)
